Reference: patent publication US20030119067A1, “PYK2 related products and methods” (Sugen, Inc., priority 1996, published 2003)
Like-named read-outs stand apart in the source and are kept apart here.

Experiments:
Shc = experiment: Tyrosine phosphorylation of Shc in PC12 cells; format: cell-based, rat; conditions: for tyrosine phosphorylation of Shc induced by agonist: DMPP 100 μM, muscarine 1 mM, NGF 100 ng/ml
Experimental: Tyrosine phosphorylation of Shc in response to bradykinin, carbachol, PMA and other stimuli was also measured. Quiescent PC12 cells were stimulated for 5 min at 37° C. with bradykinin (1 μM), carbachol (1 mM), KCl (75 mM), PMA (1.6 μM), NGF(100 ng/ml), or left unstimulated (−). The cells were also stimulated with carbachol (1 mM) or potassium chloride (75 mM) in the presence of 3 mM EGTA. Stimulations with DMPP (100 μM) or muscarine (1 mM) were preformed under the same conditions. […] The Shc proteins were immunoprecipitated with anti-Shc antibodies, the immunoprecipitates were resolved by SDS-PAGE (8%), transferred to nitrocellulose and immunoblotted with anti-phosphotyrosine antibodies.

PYK2 = experiment: Tyrosine phosphorylation of PYK2 in PC12 cells (immunoprecipitation, anti-phosphotyrosine immunoblot); format: cell-based, rat; conditions: for tyrosine phosphorylation of PYK2: quiescent PC12 cells, carbachol 1 mM, KCl 75 mM, A23187 6 μM 15 min, bradykinin 1 μM, PMA 1.6 μM
Kv1.2 channel [1] = experiment: Kv1.2 currents in Xenopus oocytes (two microelectrode voltage clamp); format: cell-based, Xenopus laevis
Experimental: In vitro capped RNA transcripts of Kv1.2, PYK2 and PKN were synthesized from linearized plasmids DNA templates utilizing the […] mMACHINE kit (Ambion), following the supplier's protocols. The products of the transcription reaction (cRNAs) were diluted in RNAse-free water and stored at −70° C. Expression of the RNAs was done by injection of 50nl of RNA into defolliculated stage V and VI oocytes from Xenopus laevis (Iverson et al., J. Neurosc. 10, 2903-2916, 1990). The injected oocytes were incubated for 2-3 days at 20° C. in L15 solution (1:2 dilution of Gibco's Leibovitz L15 medum in H20, with 50 U/ml nystatin, 0.1 mg/ml gentamycin, 30 mM HEPES buffer, pH 7.3-7.4, filtered through a 0.45 mm membrane) Electrophysiological Recording and analysis. Ionic currents were recorded with a two microelectrode voltage-clamp as described (Iverson et al., supra). The current were low-pass filtered KHz using an 8-pole Bessel filter and stored in a 80286 microcomputer using the pclamp acquisition system (Axon Instruments). The data was analyzed with the clamp fit pro-rams of the pCIamp system (Axon Instruments). All recording were performed at room temperature ([…]). The recording chamber was continually perfused with recording solution. To avoid contamination of the oocyte by Ca+^2-activated Cl^− currents low Cl^− recording solution was used (96 mM Na+, glutamate, 2 mM K^+ glutamate, 0.5 mM CaCl2, 5 mM MgCl2, 5 mM HEPES buffer). The K+ currents were elicited in depolarizinc, steps from −100 to +40 mv in 10 mV increments every 15 seconds.
Kv1.2 currents from oocytes microinjected with either Kv1.2 mRNA, Kv1.2 and PYK2 mRNAs, or Kv1.2 and a kinase negative mutant of PYK2 mRNAs (PKN). Currents were elicited in response to depolarizing steps from −100 to +30 mV increments from a holding potential of −110 mV. Representative traces of Kv1.2 channels before and after bath application of 100 nM PMA at the annotated time (8 and 20 minutes) in the same cell.
Suppression of Kv1.2 currents in response to PMA is blocked by a kinase negative PYK2 mutant (PKN). Inhibition of Kv1.2 currents in an oocyte microinjected with Kv1.2 mRNA before and 25 minutes after treatment with PMA at 50 nM or 100 nM concentration. Recordings from an oocyte expression Kv1.2 and PYK2 or Kv1.2 and a kinase negative mutant of PYK2 under the same conditions as described above. The same protocol was utilized in both experiments.
We asked whether stimulation of PYK2 can suppress Kv1.2 currents. […] Stage V oocytes were microinjected either with Kv1.2 transcripts or with Kv1.2 together with PYK2 or PKN mRNAs. […] The expression of Kv1.2, PYK2 and PKN in the frog oocytes was confirmed by immunoblot analysis with anti-HA or anti-PYK2 antibodies.

Kv1.2 potassium channel = experiment: Tyrosine phosphorylation of Kv1.2 in transfected 293 cells; format: cell-based, human; conditions: 293 cells co-expressing Kv1.2-HA and PYK2; PMA 1.6 μM, calcium ionophore 6 μM
PYK2 and Fak = experiment: Tyrosine phosphorylation of PYK2 and Fak in transfected 293 cells; format: cell-based, human; conditions: PMA 1.6 μM, calcium ionophore 6 μM
Experimental: We examined the possibility whether PYK2 can tyrosine phosphorylate the Kv1.2 channel and regulate its function. In order to test this possibility, we expressed in 293 cells the Kv1.2 protein, Kv1.2 together with PYK2, and as a control Kv1.2 with a kinase negative PYK2 mutant (PKN) or with the protein tyrosine kinase Fak. The cells were grown for 24 hours in medium containing 0.2% serum and then stimulated with PMA(1.6 μM), calcium ionophore (6 μM), or left unstimulated.
Immunoblotting analysis with phosphotyrosine anti-bodies following immunoprecipitation of PYK2, PKN and Fak by specific antibodies. […] The level of expression of the kinase negative mutant of PYK2 (PKN) was similar to the expression of wild type PYK2 or FAK. […] We next analyzed the tyrosine phosphorylation of Kv1.2 channel in each cell line.
Embryonic human kidney 293 cells were transiently transfected with different combinations of mammalian expression vectors which direct the synthesis of Kv1.2-HA, PYK2, a kinase negative PYK2 (PKN) or the protein tyrosine kinase Fak. […]
Tyrosine phosphorylation of each protein was analysed following immunoprecipitation and immunoblotting with anti-phosphotyrosine antibodies. The expression of each protein was determined by immunoblot analysis of total cell lysates from each transfection with anti-PYK2, anti-HA or anti-Fak antibodies.

Kv1.2 channel [2] = conditions: oocytes, after 20 min incubation; as previously shown (Huang et al.); cited from earlier work
PYK-2 = experiment: Tyrosine phosphorylation of PYK-2 in NIH3T3 cells overexpressing PYK-2; format: cell-based; conditions: NIH3T3 cells overexpressing PYK-2 / PYK-2-HA; TPA 6 μM, 15 min, 37° C.
Source text: The PYK-2 cDNA cloned in pLSV was cotransfected with pSV2neo into PC12 cells and NIH3T3 in order to establish stable cell lines. G418 resistant colonies were screened by immunoprecipitating and immunoblotting.
NIH3T3 cell lines were established that overexpress the PYK-2 and the PYK-2-HA protein. […] The level of phosphorylation is not so high.

[3] = PC12 cells, 37° C., TPA 1.6 μM 15 min, bradykinin 1 μM 1 min, A23187 2 μM 15 min
[4] = PC12 cells, pertussis toxin 100 ng/ml for 20 hours

C[N+]1(C)CCN(c2ccccc2)CC1.[I-] [DMPP, 1,1-dimethyl-4-phenyl piperazinium iodide]
tyrosine phosphorylation of Shc induced by agonist (Shc): induced phosphorylation of Shc

O=C(O)CN(CCOCCOCCN(CC(=O)O)CC(=O)O)CC(=O)O [EGTA, ethyleneglycol-bis (β-aminoethyl ether)-N,N,N′N′-tetraacetic acid]
effect on carbachol-induced tyrosine phosphorylation of PYK2 (PYK2; PC12 cells, EGTA 3 mM (elimination of extracellular calcium)): completely blocked agonist induced tyrosine phosphorylation of PYK2
effect on LPA-induced PYK2 phosphorylation (PYK2; PC12 cells, medium containing 3 mM EGTA): did not affect

[Cl-].[K+] [KCl, potassium chloride]
agonist-induced PYK2 tyrosine phosphorylation on omission of extracellular calcium (PYK2; PC12 cells, no extracellular calcium or EGTA present): completely abolished PYK2 tyrosine phosphorylation
tyrosine phosphorylation of PYK2 (PYK2; 37° C.): induces rapid tyrosine phosphorylation of PYK2

CCCCCCCCCCCCCC(=O)O[C@@H]1[C@@H](C)[C@@]2(O)[C@@H](C=C(CO)C[C@]3(O)C(=O)C(C)=C[C@@H]23)[C@@H]2C(C)(C)[C@]12OC(C)=O [PMA, phorbol 12-myristate 13-acetate]
agonist-induced PYK2 tyrosine phosphorylation after prolonged PMA treatment (PKC down-regulation) (PYK2; PC12 cells pretreated with 100 nM PMA for 12 h): completely abolished the effect of PMA
tyrosine phosphorylation of PYK-2 in response to the stimulus alone (PYK2; [3]): undergoes tyrosine phosphorylation
increase in the phosphorylation state of PYK2 relative to unstimulated cells (PYK2; PC12 cells, LPA 2.5 mM, bradykinin 1 mM 3 min, PMA 1 mM 10 min, 37° C.): 12 fold
tyrosine phosphorylation of PYK2 (PYK2; 37° C.): induced tyrosine phosphorylation of PYK2
inhibition of outward current (Kv1.2 channel [1]; oocytes coexpressing Kv1.2 and PYK2, 8 min after 100 nM PMA): 95%
inhibition of outward current (Kv1.2 channel [1]; oocytes expressing Kv1.2 alone, 8 min after 100 nM PMA): 25%
effect on Kv1.2 currents (Kv1.2 channel [1]; oocytes treated with PMA): caused inhibition of Kv1.2 currents
effect on kinetics and voltage dependence of remaining Kv1.2 currents (Kv1.2 channel [1]; oocytes, absence or presence of PYK2 expression): did not result in changes in both the kinetics or voltage dependence of the remaining currents
tyrosine phosphorylation of Kv1.2 (Kv1.2 potassium channel): enhanced
tyrosine phosphorylation of PYK2 and Fak (PYK2 and Fak): induced tyrosine phosphorylation
inhibition of Kv1.2 currents (Kv1.2 channel [2]): 80-90%

CN1[C@@H]2CC[C@H]1C[C@@H](OC(=O)C(CO)c1ccccc1)C2 (some centres unmarked) [atropine]
effect of antagonist on carbachol-induced tyrosine phosphorylation of Shc (Shc): had no effect

CNc1ccc2oc(C[C@H]3O[C@@]4(CC[C@H]3C)O[C@H]([C@H](C)C(=O)c3ccc[nH]3)[C@H](C)C[C@H]4C)nc2c1C(=O)O [calcium ionophore A23187]
tyrosine phosphorylation of PYK-2 in response to the stimulus alone (PYK2; [3]): undergoes tyrosine phosphorylation
tyrosine phosphorylation of PYK2 (PYK2; 37° C.): phosphorylated on tyrosine residues
tyrosine phosphorylation of Kv1.2 (Kv1.2 potassium channel): enhanced
tyrosine phosphorylation of PYK2 and Fak (PYK2 and Fak): induced a weaker response

C[N+](C)(C)CCOC(N)=O [carbachol]
time after applying the agonist at which PYK2 became phosphorylated on tyrosine (PYK2; PC12 cells, carbachol): 5 s
tyrosine phosphorylation of PYK2 (PYK2; 37° C.): induces strong, tyrosine phosphorylation of PYK2
time of maximum tyrosine phosphorylation of Shc (Shc; 1 mM carbachol time course): one
dependence of agonist-induced tyrosine phosphorylation of Shc on extracellular calcium (Shc; 3 mM EGTA): dependent on the presence of extracellular calcium

CNC1(C)C2CCC(C2)C1(C)C (centres unmarked) [mecamylamine]
effect of antagonist on carbachol-induced tyrosine phosphorylation of Shc (Shc): blocked the effect of carbachol

C[C@@H]1O[C@H](C[N+](C)(C)C)C[C@H]1O [muscarine]
tyrosine phosphorylation of Shc induced by agonist (Shc): had no effect

Cholera toxin
effect on the TPA / bradykinin PYK-2 phosphorylation response in combination (PYK2): gave higher signal in combination with TPA and bradykinin
tyrosine phosphorylation of PYK-2 in response to the stimulus alone (PYK2): didn't cause phosphorylation of PYK-2 alone

EGF: growth factor used to stimulate NIH3T3 cells
tyrosine phosphorylation of PYK-2 (PYK-2): undergoes tyrosine phosphorylation

NGF: nerve growth factor
tyrosine phosphorylation of Shc induced by agonist (Shc): induced persistent stimulation of Shc phosphorylation
duration of stimulation of Shc phosphorylation after addition (Shc; NGF): five

PDGF
tyrosine phosphorylation of PYK-2 (PYK-2): undergoes tyrosine phosphorylation

aFGF: growth factor used to stimulate NIH3T3 cells
tyrosine phosphorylation of PYK-2 (PYK-2): undergoes tyrosine phosphorylation

pertussis toxin
effect on the TPA / bradykinin PYK-2 phosphorylation response in combination (PYK2): induced the response of TPA and bradykinin
tyrosine phosphorylation of PYK-2 in response to the stimulus alone (PYK2; [3]): didn't cause any response alone
effect of pretreatment on LPA-induced tyrosine phosphorylation of PYK2 (PYK2; [4]): significantly inhibited
effect of pretreatment on bradykinin or PMA induced activation of PYK2 (PYK2; [4]): not affected
